Data reported in patent US20110251233A1, “FORMULATION FOR THE BUCCAL TRANSMUCOSAL ADMINISTRATION OF SETRONS” (priority 2008, published 2011).

Assay: dissolution of ondansetron in hydroalcoholic solution
Assay type: physicochemical
Settings: approximately 50° ethanol
Description: By way of example, the coefficient of dissolution of ondansetron in ethanol allows complete dissolution of said active ingredient at the rate of 2 milligrams (mg) of ondansetron per 0.75 milliliters (mL) of approximately 50° ethanol. This coefficient may be modulated as a function of the degree of alcohol and the water/ethanol ratio used.

With Cc1nccn1CC1CCc2c(c3ccccc3n2C)C1=O (stereo not shown) [ondansetron] the “coefficient of dissolution (complete dissolution)” value was 2 mg per 0.75 mL.
